Assays:
[1] = Apparent permeability of compound across apical to basal side in vinblastine treated human Caco-2 cells at 1 to 10 uM incubated for 15 to 60 mins by HPLC analysis
[2] = Efflux ratio of apparent permeability across basolateral to apical side over apical to basolateral side in vinblastine treated human Caco-2 cells at 1 to 10 uM incubated for 15 to 60 hrs by HPLC analysis
[3] = target: Voltage-gated inwardly rectifying potassium channel KCNH2 (Homo sapiens, UniProt Q12809)
Description: Inhibition of hERG expressed in CHO cells at -80 mV holding potential incubated for 7 to 10 mins by automated patch clamp method

in vitro [4] = conditions: Wistar, rat, microsomes
in vitro [5] = conditions: NMRI, mouse, microsomes
animal or person [6] = conditions: Mus musculus, NMRI, po, read-out: INH
animal or person [7] = conditions: Mus musculus, NMRI, po, read-out: INH; remark: listed apart in the source
Vasopressin V1a receptor [8] = target: T1, Vasopressin V1a receptor (Homo sapiens, UniProt P37288)
T1 sequence (P37288 whole entry): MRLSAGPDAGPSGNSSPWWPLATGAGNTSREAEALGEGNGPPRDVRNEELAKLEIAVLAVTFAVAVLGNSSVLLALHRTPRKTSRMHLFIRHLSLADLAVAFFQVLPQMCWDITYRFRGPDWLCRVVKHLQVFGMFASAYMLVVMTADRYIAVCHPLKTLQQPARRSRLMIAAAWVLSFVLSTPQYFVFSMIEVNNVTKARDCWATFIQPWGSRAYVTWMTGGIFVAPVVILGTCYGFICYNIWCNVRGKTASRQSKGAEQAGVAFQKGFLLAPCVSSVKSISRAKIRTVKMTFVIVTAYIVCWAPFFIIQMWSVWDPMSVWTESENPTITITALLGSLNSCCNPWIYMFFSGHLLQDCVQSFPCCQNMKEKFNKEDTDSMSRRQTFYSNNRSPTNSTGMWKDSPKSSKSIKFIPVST
Description: Antagonist activity at human V1A receptor expressed in human 1321N1 cells assessed as Ca2+ mobilization incubated for 15 mins by FLIPR calcium 5 assay

[9] = human, microsomes, 1 µM
animal or person [10] = conditions: Mus musculus, NMRI, read-out: INH
in vitro [11] = conditions: CD-1, mouse, liver microsomes
Vasopressin V1a receptor [12] = target: T1, Vasopressin V1a receptor; remark: listed apart in the source
Description: Displacement of [3H]vasopressin from human V1A receptor assessed as inhibition constant by Cheng-Prusoff equation analysis

in vitro [13] = conditions: human, microsomes
animal or person [14] = conditions: Rattus norvegicus, po, read-out: INH
[15] = Half life in Wistar rat plasma at 3 mg/kg, iv by HPLC-MS/MS analysis
[16] = Half life in Wistar rat plasma at 3 mg/kg, po by HPLC-MS/MS analysis
[17] = Half life in Wistar rat brain at 3 mg/kg, po by HPLC-MS/MS analysis
in vivo [18] = conditions: Wistar, rat, iv, 3 mg/kg
in vivo [19] = conditions: Wistar, rat, po, 3 mg/kg
in vivo [20] = conditions: Wistar, rat, po, 3 mg/kg; remark: listed apart in the source
in vivo [21] = conditions: Wistar, rat, plasma, iv, 3 mg/kg
in vivo [22] = conditions: Wistar, rat, plasma, po, 3 mg/kg
in vivo [23] = conditions: Wistar, rat, brain, po, 3 mg/kg
in vivo [24] = conditions: Wistar, rat, plasma, iv, 3 mg/kg; remark: listed apart in the source
in vivo [25] = conditions: Wistar, rat, brain, po, 3 mg/kg; remark: listed apart in the source
in vivo [26] = conditions: Wistar, rat, brain, po, 3 mg/kg; remark: listed apart in the source

Voltage-gated inwardly rectifying potassium channel KCNH2, sequence (Q12809 whole entry): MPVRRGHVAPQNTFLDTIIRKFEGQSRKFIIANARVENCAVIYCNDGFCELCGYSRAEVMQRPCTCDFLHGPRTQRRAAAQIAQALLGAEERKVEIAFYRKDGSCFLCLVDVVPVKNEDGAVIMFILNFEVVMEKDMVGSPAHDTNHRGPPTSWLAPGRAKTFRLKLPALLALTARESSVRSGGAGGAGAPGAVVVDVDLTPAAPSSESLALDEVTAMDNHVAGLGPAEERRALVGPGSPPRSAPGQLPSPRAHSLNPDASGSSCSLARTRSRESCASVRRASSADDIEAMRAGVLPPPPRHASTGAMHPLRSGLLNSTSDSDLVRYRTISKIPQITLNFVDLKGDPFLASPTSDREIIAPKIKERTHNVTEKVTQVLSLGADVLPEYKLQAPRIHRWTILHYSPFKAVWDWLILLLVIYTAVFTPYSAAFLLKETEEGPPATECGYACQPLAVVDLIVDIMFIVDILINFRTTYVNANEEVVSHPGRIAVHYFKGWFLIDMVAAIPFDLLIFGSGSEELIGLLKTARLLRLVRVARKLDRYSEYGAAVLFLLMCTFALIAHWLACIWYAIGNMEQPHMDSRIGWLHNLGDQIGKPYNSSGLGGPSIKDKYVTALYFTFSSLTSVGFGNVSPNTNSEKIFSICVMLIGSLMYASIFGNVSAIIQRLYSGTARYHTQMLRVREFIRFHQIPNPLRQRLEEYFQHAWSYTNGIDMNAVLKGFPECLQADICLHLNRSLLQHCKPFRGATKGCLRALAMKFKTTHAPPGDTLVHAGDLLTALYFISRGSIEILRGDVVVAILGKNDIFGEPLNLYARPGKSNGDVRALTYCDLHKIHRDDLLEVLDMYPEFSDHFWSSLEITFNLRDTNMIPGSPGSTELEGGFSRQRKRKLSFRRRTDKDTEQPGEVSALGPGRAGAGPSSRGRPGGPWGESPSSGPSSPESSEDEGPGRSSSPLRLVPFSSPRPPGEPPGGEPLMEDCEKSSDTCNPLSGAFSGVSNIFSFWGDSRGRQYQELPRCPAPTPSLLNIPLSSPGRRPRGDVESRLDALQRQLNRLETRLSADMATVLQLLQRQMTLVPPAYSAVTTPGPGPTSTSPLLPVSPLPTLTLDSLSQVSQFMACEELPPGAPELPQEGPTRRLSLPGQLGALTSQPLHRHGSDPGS

SMILES	Papp A→B at 10 µM [1]	efflux ratio at 10 µM [2]	microsomal CLint at 1 µM (in vitro [4])	microsomal CLint at 1 µM (in vitro [5])	CLH [9]	microsomal CLint at 1 µM (in vitro [11])	microsomal CLint at 1 µM (in vitro [13])	IC50 [3]	inhibition in vivo at 10 mg/kg (animal or person [6])	inhibition in vivo at 3 mg/kg (animal or person [7])	other results
O[C@@H]1Cc2cc(Cl)ccc2-n2c(nnc2[C@H]2CC[C@H](Oc3ccccn3)CC2)C1	23 ×10⁻⁶ cm/s	3.5	56 µL/min/mg	5 µL/min/mg				> 30 µM	84%	75%	
Clc1cnc2n1CCCc1nnc([C@H]3CC[C@H](Oc4ccccn4)CC3)n1-2		0.8	12 µL/min/mg	15 µL/min/mg	41 µL/min/mg						IC50 (Vasopressin V1a receptor [8]): 178 nM; inhibition in vivo at 10 mg/kg (animal or person [10]): 32%
Clc1ccc2c(c1)CC1(Cc3nnc([C@H]4CC[C@H](Oc5ccccn5)CC4)n3-2)OCCCCO1			229 µL/min/mg	211 µL/min/mg	170 µL/min/kg						IC50 (Vasopressin V1a receptor [8]): 1.1 nM
Clc1ccc2c(c1)CC1(Cc3nnc([C@H]4CC[C@H](N5CCOCC5)CC4)n3-2)OCCO1	4.5 ×10⁻⁶ cm/s	15	6 µL/min/mg			7 µL/min/mg		3.5 µM			
CC(C)NC1Cc2ccccc2-n2c(nnc2[C@H]2CC[C@H](Oc3ccccn3)CC2)C1 (some centres undefined)										18%	Ki (Vasopressin V1a receptor [12]): 5.6 nM
O=C(N[C@@H]1Cc2cc(Cl)ccc2-n2c(nnc2[C@H]2CC[C@H](Oc3ccccn3)CC2)C1)C1CCC(F)(F)CC1			32 µL/min/mg			154 µL/min/mg	34 µL/min/mg				
Clc1ccc2c(c1)CC1(CCOC1)Cc1nnc([C@H]3CC[C@H](Oc4ccccn4)CC3)n1-2 (some centres undefined)			42 µL/min/mg		26 µL/min/kg	80 µL/min/mg					Ki (Vasopressin V1a receptor [12]): 0.3 nM; IC50 (Vasopressin V1a receptor [8]): 1.3 nM
O=C1Cc2cc(Cl)ccc2-n2c(nnc2[C@H]2CC[C@H](Oc3ccccn3)CC2)C1			43 µL/min/mg	36 µL/min/mg	124 µL/min/kg			> 30 µM	70%	58%	
CO[C@]1(C)CC[C@@H](c2nnc3n2-c2ccc(Cl)cc2CC2(C3)OCCO2)CC1	42 ×10⁻⁶ cm/s	1	12 µL/min/mg	16 µL/min/mg				> 30 µM	41%	0%	
CO[C@H]1Cc2cc(Cl)ccc2-n2c(nnc2[C@H]2CC[C@H](Oc3ccccn3)CC2)C1	40 ×10⁻⁶ cm/s	2.7	33 µL/min/mg			66 µL/min/mg		10.2 µM	71%	69%	Ki (Vasopressin V1a receptor [12]): 2 nM; IC50 (Vasopressin V1a receptor [8]): 0.6 nM
Clc1ccc2c(c1)CC1(CCCOC1)Cc1nnc([C@H]3CC[C@H](Oc4ccccn4)CC3)n1-2 (some centres undefined)			267 µL/min/mg		256 µL/min/kg	263 µL/min/mg					Ki (Vasopressin V1a receptor [12]): 0.3 nM; IC50 (Vasopressin V1a receptor [8]): 23 nM
COCC1Cc2cc(Cl)ccc2-n2c(nnc2[C@H]2CC[C@H](Oc3ccccn3)CC2)C1 (some centres undefined)	30 ×10⁻⁶ cm/s	1		126 µL/min/mg	46 µL/min/kg						Ki (Vasopressin V1a receptor [12]): 0.6 nM; IC50 (Vasopressin V1a receptor [8]): 0.8 nM
CO[C@@H]1Cc2cc(Cl)ccc2-n2c(nnc2[C@H]2CC[C@H](Oc3ccccn3)CC2)C1	38 ×10⁻⁶ cm/s	0.9	41 µL/min/mg			25 µL/min/mg		13.8 µM	67%	73%	Ki (Vasopressin V1a receptor [12]): 0.2 nM; IC50 (Vasopressin V1a receptor [8]): 0.6 nM; inhibition in vivo at 10 mg/kg (animal or person [14]): > 60%
FC(F)(F)[C@H]1CC[C@H](c2nnc3n2-c2ccc(Cl)cc2CC2(C3)OCCO2)CC1	39 ×10⁻⁶ cm/s	1	16 µL/min/mg	34 µL/min/mg	0.2 µL/min/kg			> 30 µM	41%	0%	
OC1Cc2cc(Cl)ccc2-n2c(nnc2[C@H]2CC[C@H](Oc3ccccn3)CC2)C1 (mixture of isomers)	20 ×10⁻⁶ cm/s	5.9	17 µL/min/mg	6 µL/min/mg	0.4 µL/min/kg			> 30 µM	91%	87%	half-life [15]: 60 min; half-life [16]: 90 min; half-life [17]: 85.8 min; AUC(0-t) (in vivo [18]): 0.876 µM·h; AUC(0-t) (in vivo [19]): 0.897 µM·h; AUC(0-t) (in vivo [20]): 0.481 µM·h; Cmax (in vivo [21]): 469 nM; Cmax (in vivo [22]): 403 nM; Cmax (in vivo [23]): 190 nM; Tmax (in vivo [24]): 18 min; Tmax (in vivo [25]): 30 min; Kp (in vivo [26]): 0.54
CN1Cc2cc(Cl)ccc2-n2c(nnc2[C@H]2CC[C@H](Oc3ccccn3)CC2)C1 [BALOVAPTAN]	51 ×10⁻⁶ cm/s		17 µL/min/mg	22 µL/min/mg	51 µL/min/mg			21 µM	69%	7%	

Now from value to compound, other results behind:

Papp A→B at 10 µM [1]	efflux ratio at 10 µM [2]	microsomal CLint at 1 µM (in vitro [4])	microsomal CLint at 1 µM (in vitro [5])	CLH [9]	microsomal CLint at 1 µM (in vitro [11])	microsomal CLint at 1 µM (in vitro [13])	SMILES	IC50 [3]	inhibition in vivo at 10 mg/kg (animal or person [6])	inhibition in vivo at 3 mg/kg (animal or person [7])	other results
0.5 ×10⁻⁶ cm/s	118	15 µL/min/mg			19 µL/min/mg	13 µL/min/mg	N#CCC(=O)N[C@@H]1Cc2cc(Cl)ccc2-n2c(nnc2[C@H]2CC[C@H](Oc3ccccn3)CC2)C1				
		86 µL/min/mg			91 µL/min/mg	157 µL/min/mg	O=C(N[C@@H]1Cc2cc(Cl)ccc2-n2c(nnc2[C@H]2CC[C@H](Oc3ccccn3)CC2)C1)C1CCC1				
		77 µL/min/mg			242 µL/min/mg	49 µL/min/mg	CC(C)(C)C(=O)N[C@@H]1Cc2cc(Cl)ccc2-n2c(nnc2[C@H]2CC[C@H](Oc3ccccn3)CC2)C1				
2.7 ×10⁻⁶ cm/s	14	1 µL/min/mg			4 µL/min/mg	0.2 µL/min/mg	CC(=O)N[C@@H]1Cc2cc(Cl)ccc2-n2c(nnc2[C@H]2CC[C@H](Oc3ccccn3)CC2)C1				
1.8 ×10⁻⁶ cm/s	37	3 µL/min/mg			16 µL/min/mg	1 µL/min/mg	CC(C)(O)C(=O)N[C@@H]1Cc2cc(Cl)ccc2-n2c(nnc2[C@H]2CC[C@H](Oc3ccccn3)CC2)C1				
4.3 ×10⁻⁶ cm/s	14.6	1 µL/min/mg			22 µL/min/mg	1 µL/min/mg	O=C(N[C@@H]1Cc2cc(Cl)ccc2-n2c(nnc2[C@H]2CC[C@H](Oc3ccccn3)CC2)C1)C1CC1				
11 ×10⁻⁶ cm/s	2.9	4 µL/min/mg			18 µL/min/mg	2 µL/min/mg	O=C(N[C@@H]1Cc2cc(Cl)ccc2-n2c(nnc2[C@H]2CC[C@H](Oc3ccccn3)CC2)C1)C(F)(F)F				
		29 µL/min/mg			96 µL/min/mg	15 µL/min/mg	CN(C)CCC(=O)N[C@@H]1Cc2cc(Cl)ccc2-n2c(nnc2[C@H]2CC[C@H](Oc3ccccn3)CC2)C1				

Reference: ChEMBL document CHEMBL5532679, “Discovery and Characterization of RGH-122, a Potent, Selective, and Orally Bioavailable V1a Receptor Antagonist” (J Med Chem, 2024)
